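96-well plates; 48 h exposure; 5 concentrations. Endpoints by linear interpolation between flanking doses. Not reached: highest tested concentration assigned. The concentration for full growth arrest is given as TGI.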
Columns and labels:
Experiment in all cases: growth of human tumour cells (NCI), 48 h
OVCAR-5 ovarian = test system: OVCAR-5 ovarian
HT29 colon = test system: HT29 colon
SNB-19 CNS = test system: SNB-19 CNS
MCF7 breast = test system: MCF7 breast
NCI-H460 lung = test system: NCI-H460 lung
TK-10 renal = test system: TK-10 renal
MDA-MB-435 = test system: MDA-MB-435
NCI-H23 lung = test system: NCI-H23 lung
T-47D breast = test system: T-47D breast
SF-268 CNS = test system: SF-268 CNS
UO-31 renal = test system: UO-31 renal
OVCAR-4 ovarian = test system: OVCAR-4 ovarian
NCI-H226 lung = test system: NCI-H226 lung
EKVX NSCLC = test system: EKVX NSCLC
DU-145 prostate = test system: DU-145 prostate
LOX IMVI melanoma = test system: LOX IMVI melanoma
786-0 renal = test system: 786-0 renal
COLO 205 colon = test system: COLO 205 colon
MALME-3M melanoma = test system: MALME-3M melanoma
UACC-257 melanoma = test system: UACC-257 melanoma
ACHN renal = test system: ACHN renal
SK-MEL-2 melanoma = test system: SK-MEL-2 melanoma
IGROV1 ovarian = test system: IGROV1 ovarian
HOP-92 NSCLC = test system: HOP-92 NSCLC
UACC-62 melanoma = test system: UACC-62 melanoma
HCT-116 colon = test system: HCT-116 colon
MDA-MB-231 breast = test system: MDA-MB-231 breast
SK-MEL-28 melanoma = test system: SK-MEL-28 melanoma
HCC-2998 colon = test system: HCC-2998 colon
A498 renal = test system: A498 renal
NCI-H522 lung = test system: NCI-H522 lung
K-562 leukemia = test system: K-562 leukemia
SNB-75 CNS = test system: SNB-75 CNS
OVCAR-3 ovarian = test system: OVCAR-3 ovarian
OVCAR-8 ovarian = test system: OVCAR-8 ovarian
SW-620 colon = test system: SW-620 colon
SK-OV-3 ovarian = test system: SK-OV-3 ovarian
SN12C renal = test system: SN12C renal
SF-295 CNS = test system: SF-295 CNS
U251 CNS = test system: U251 CNS
HOP-62 NSCLC = test system: HOP-62 NSCLC
M14 melanoma = test system: M14 melanoma
MDA-N = test system: MDA-N
SK-MEL-5 melanoma = test system: SK-MEL-5 melanoma
NCI/ADR-RES ovarian = test system: NCI/ADR-RES ovarian
CCRF-CEM leukemia = test system: CCRF-CEM leukemia
RPMI-8226 leukemia = test system: RPMI-8226 leukemia
RXF 393 renal = test system: RXF 393 renal
HL-60(TB) leukemia = test system: HL-60(TB) leukemia
HCT-15 colon = test system: HCT-15 colon
A549 NSCLC = test system: A549 NSCLC
CAKI-1 renal = test system: CAKI-1 renal
SR leukemia = test system: SR leukemia
KM12 colon = test system: KM12 colon
BT-549 breast = test system: BT-549 breast
PC-3 prostate = test system: PC-3 prostate
HS 578T breast = test system: HS 578T breast
MOLT-4 leukemia = test system: MOLT-4 leukemia
SF-539 CNS = test system: SF-539 CNS

Measured: TGI

C[C@]12CCC(=O)C=C1C[C@@H](O)[C@@H]1[C@@H]2CC[C@@]2(C)[C@H]1CC[C@]2(C)O
not listed: MOLT-4 leukemia | SF-539 CNS
> 100 µM: all other assays above

N=c1ncn(C/C=C/c2ccccc2)c2nc[nH]c12
36.5 µM: MOLT-4 leukemia
not listed: NCI-H226 lung | CCRF-CEM leukemia | HL-60(TB) leukemia
> 100 µM: all other assays above
